Experimental data published in patent US10830762B2, “Compositions and methods for inducing conformational changes in cereblon and other E3 ubiquitin ligases” (Celgene Corporation, priority 2015, dated 2020).
Blank lines part the entries; values can stand above or below the compound they belong to.

Key:
[1] = system: TMD8 (ABC) or Karpas 422 (GCB) cells; assay: 3H-thymidine incorporation proliferation assay with lenalidomide co-treatment; assay type: cell-based
[2] = system: mouse splenocytes; assay: IL2 induction in mouse splenocytes / mouse PBMC treated with anti-CD3; assay type: cell-based
Description: Data are shown as mean±s.d. (B) Costimulation of IL2 release by anti-CD28 (squares) or pomalidomide (circles) in mouse PBMC treated with anti-CD3. Data are shown as mean±s.d.

[3] = system: human PBMCs; assay: IL2 release co-stimulation in human PBMCs treated with anti-CD3; assay type: cell-based
[4] = target: T1, CRBN (Homo sapiens, UniProt Q96SW2, E377V); assay: Thalidomide analog bead assay with extracts of DF15R cells re-expressing wild type or mutant CRBN; assay type: binding; conditions: CRBN E377V mutant; preincubation of cell extracts with free compound
T1 construct: re-express full length wild type (CRBN^WT); expressed in transfected cells; host or cells: DF15R (CRBN-deficient myeloma) cells, lentiviral transduction, cell extract
Procedure: (§1) DF15, DF15R or DF15R derived cell line extracts were prepared in NP 40 lysis buffer (0.5% NP40, 50 mM Tris HCl (pH 8.0), 150 mM NaCl, 0.5 mM DTT, 0.25 mM PMSF, 1× protease inhibitor mix (Roche, Indianapolis, Ind.) at approximately 2×10^8 cells per ml […]. Cell debris and nucleic acids were cleared by centrifugation (14,000 rpm 30 min 4° C.). In competition experiments 0.5 ml (3-5 mg protein) aliquots of the resulting extracts were preincubated (15 min room temp.) with 5 μl DMSO (control) or 5 μl compound at varying concentrations in DMSO. Thalidomide analog-coupled beads (0.3-0.5 mg) were added to protein extracts and samples rotated (2 hours, 4° C.). Beads were washed three times with 0.5 ml NP40 buffer, and then bound proteins were eluted with SDS-PAGE sample buffer.
(§2) Cell extracts from these lines were then used to assay the ability of CRBN to bind immunomodulatory agent compound.
(§3) Cell extracts from this line were used to assay the ability of CRBN^E377V to bind Immunomodulatory agent compound.

[5] = target: CRBN (Homo sapiens, UniProt Q96SW2); assay: as above; assay type: binding; design: re-express full length wild type (CRBN^WT); expressed in transfected cells; host or cells: DF15R (CRBN-deficient myeloma) cells, lentiviral transduction, cell extract; conditions: recombinant CRBN WT expressed in DF15R; preincubation of cell extracts with free compound
Procedure: as §1, §2, §3

[6] = target: MBP-IKZF1 (a.a. 140-168) / CRBN-DDB1 (Homo sapiens, UniProt Q13422+Q96SW2); conditions: 100 uM compound; IKZF1 domain with one predicted zinc finger
[7] = system: DF15R myeloma cells; assay: Cell proliferation assay of DF15R cells re-expressing wild type or mutant CRBN treated with pomalidomide; assay type: cell-based
Procedure: (A) Cell lines re-expressing full-length CRBN wild-type. W386A or W400A mutants were tested for the ability to bind immunomodulatory agent compounds. Assay was repeated at least three times. Representative Western blot of representative experiment is shown. (B) Cell proliferation assay of DF15 (sensitive). DF15R (resistant; CRBN^null), CRBNWT, CRBNW386A; CRBN400 cells treated with a dose response of pomalidomide. Assays were done in triplicate and error bars representative s.d. Data for each cell line was normalized to treatment with vehicle (DMSO). (C) Western blots of key downstream effectors of immunomodulatory agent resistance.
(A) Cell lines re-expressing RFP or full length CRBN wild type or E377V mutant were tested for the ability of CRBN proteins to bind immunomodulatory agent compounds. Assay was repeated at least three times. Representative Western blot of representative experiment is shown. (B) Cell proliferation assay of DF15 (sensitive), DF15R (resistant; CRBN^null), CRBN^WT, CRBN^E377V cells treated with a dose response of pomalidomide. Assays were done in triplicate and error bars represent s.d. Data for each cell line was normalized to treatment with vehicle (DMSO).
The antiproliferative effect of immunomodulatory agent compounds on myeloma cells is mediated through CRBN protein. […]

[8] = system: H929 and U266 multiple myeloma cell lines; assay: Cell viability by flow cytometry in CRBN inducible shRNA knockdown cells; assay type: cell-based; conditions: CRBN inducible knockdown vs shControl; 5 day treatment
Procedure: (A) An inducible shRNA construct targeting CRBN or a control construct was transduced into the multiple myeloma cell lines H929 and U266. Inducible shRNA expression (marked by turbo-RFP) was monitored by flow cytometry over a period of 1 to 9 days as indicated in the histograms (Top row). […] (B) CRBN protein expression was quantified by Western blotting. […] (D)-(F) After 9 days of shRNA inducible knock-down, cells were treated with increasing doses of pomalidomide and compound effect in cell viability was assayed by flow cytometry after 5 day treatment. […] Data are shown as mean of three independent experiments±s.d.
Inducible shRNA constructs targeting CRBN or a control construct (Open Biosystems) were transduced using spinoculation methodology into the multiple myeloma cell lines H929 and U266. Stably transduced cells were selected with puromycin. Inducible shRNA expression (marked by RFP) was monitored by fluorescence microscopy and flow cytometry using 1 μg/mL doxycycline. CRBN protein expression was quantified by Western blotting. Cell proliferation and viability were assessed by 7AAD/flow cytometry assays.

Compound: Cc1nc2cccc(N)c2c(=O)n1C1CCC(=O)NC1=O (stereo not drawn) [Compound A, 3-(5-amino-2-methyl-4-oxo-4H-quinazolin-3-yl)-piperidine-2,6-dione]
anti-proliferative effects on co-treatment with lenalidomide ([1]; co-treatment with 10 μM lenalidomide, 3H-thymidine incorporation): blocks anti-proliferative effects

Compound: Nc1cccc2c1CN(C1CCC(=O)NC1=O)C2=O (stereo not drawn) [lenalidomide, 3-(4-amino-1-oxo-1,3-dihydro-isoindol-2-yl)-piperidine-2,6-dione, reference compound]
competition for CRBN ([1]; co-culture with Compound A or Compound C): competes with Compound A and Compound C for CRBN

competition for CRBN binding to thalidomide analog-beads [4]: competed
competition for CRBN binding to thalidomide analog-beads [5]: competed for binding to the beads
pull down of CRBN-DDB1 by minimal IKZF1 domain [6]: sufficient to pull down CRBN-DDB1
Compound: Nc1cccc2c1C(=O)N(C1CCC(=O)NC1=O)C2=O (stereo not drawn) [pomalidomide]
IL-2 induction [2]: resistant to the IL-2 inducing effects
IL2 release [3]: Co-stimulation of IL2 release
antiproliferative sensitivity ([7]; DF15R re-expressing CRBN E377V): unable to rescue sensitivity
antiproliferative effect ([7]; DF15R re-expressing CRBN WT): regained antiproliferative effect
anti-proliferative effects in CRBN knockdown cells [8]: reduced anti-proliferative effects

competition for CRBN binding to thalidomide analog-beads [4]: competed
competition for CRBN binding to thalidomide analog-beads [5]: competed for binding to the beads
Compound: O=C1CCC(N2C(=O)c3ccccc3C2=O)C(=O)N1 (stereo not drawn) [thalidomide]
